US9611272B2, “Polymorphic forms of icotinib and uses thereof” (BETTA PHARMACEUTICALS CO., LTD, priority 2013, dated 2017)
Counter-ions that a name gives are not always drawn. Like-named read-outs stand apart in the source and are kept apart here.

Experiment: Pharmacokinetic study of Icotinib hydrochloride and Polymorph Form II of Icotinib, oral suspension, plasma by HPLC
Assay type: in vivo
Conditions: fasted male SD rats, oral suspension in sodium carboxymethyl cellulose, dose equivalent to 50 mg/kg Icotinib
Text: Pharmacokinetic Study of Icotinib Hydrochloride and the Polymorph Form II of Icotinib
Drugs and reagents: the Icotinib hydrochloride used in this study was of Crystalline Form I disclosed by the WO2010/003313. Polymorph Form II of Icotinib and Icotinib hydrochloride were ground to fine particles. The material content (purity) was not less than 99.0%. Sodium carboxymethyl cellulose was medical supply graded.
Experimental animals: SD rats were divided to the Icotinib hydrochloride group and a Polymorph Form II group.
Pharmaceutical preparation: the amount of each compound was weighed and then sodium carboxymethyl cellulose was added to result in the test compound's concentration of 0.5%. The solid mixture was then added to prepare a suspension thereof at a final concentration of […] in water.
Administration and sample collection: each suspension was administered orally to fasted SD rats at a dose equivalent to 50 mg/kg Icotinib in a dose volume of 5 ml/kg. 0.4 ml of blood was collected in EDTA-K pre anticoagulant tubes at time intervals of 0.5, 1, 1.5, 2, 4, 6, 8 and 24 hours after the administration of the test compound, centrifuged at 3000 rpm for 10 minutes, and 120 μl plasma was collected and kept in cold storage.
Samples were analyzed by high performance liquid chromatography. The chromatographic conditions utilized C18-silane bonded silica as stationary phase, 0.02 mol/L of sodium dihydrogen phosphate in acetonitrile (40:60, using sodium hydroxide solution to adjust pH to 5.0) as the mobile phase and a detection wavelength of 334 nm.

Row | Compound | AUC(0-24) | AUC(0-∞) | Cmax | T1/2 | Tmax | Tmax (hydrochloride) | AUC(0-inf) (male, SD, rat, po, 50 mg/kg) | half-life (male, SD, rat, po, 50 mg/kg) | AUC(0-t) (male, SD, rat, po, 50 mg/kg, read-out: AUC(0-24)) | Cmax (male, SD, rat, po, 50 mg/kg, read-out: Cmax)
1 | C#Cc1cccc(Nc2ncnc3cc4c(cc23)OCCOCCOCCO4)c1 [Polymorph Form II of Icotinib, Icotinib] | 62400 ± 30100 ng·h/mL | 63000 ± 30000 ng·h/mL | 5800 ± 2600 ng/mL | 3.5 ± 0.6 h | 4.5 ± 2.6 h | – | – | – | – | –
2 | C#Cc1cccc(Nc2ncnc3cc4c(cc23)OCCOCCOCCO4)c1 [Icotinib hydrochloride] | – | – | – | – | – | 1.3 ± 1.1 h | 39800 ± 28500 ng·h/mL | 3.1 ± 1.4 h | 39200 ± 27600 ng·h/mL | 4900 ± 2600 ng/mL
